# Molecular target: T1, Jak1 (Homo sapiens, UniProt P23458)
# T1 construct: using a recombinant purified GST-tagged catalytic domain for each enzyme; GST; purchased Invitrogen M4290
# Experiment: Jak Biochemical HTRF Assay (Jak1)
# Settings: IC50 class, recombinant GST-tagged catalytic domain, read-out: Jak1 activity
# In short: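 Recombinant GST-tagged Jak1 catalytic domain was preincubated with compound and peptide substrate for 30 min at room temperature, and the reaction was then started with ATP and run 120 min. Buffer contained 2 mM DTT and 0.05% BSA. Read-out was HTRF (665/615 nm) with Eu-pY20 antibody and streptavidin-Dylight, and IC50 values came from 4-parameter fits of percent inhibition.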
# T1 sequence (P23458 875-1153 limits assumed): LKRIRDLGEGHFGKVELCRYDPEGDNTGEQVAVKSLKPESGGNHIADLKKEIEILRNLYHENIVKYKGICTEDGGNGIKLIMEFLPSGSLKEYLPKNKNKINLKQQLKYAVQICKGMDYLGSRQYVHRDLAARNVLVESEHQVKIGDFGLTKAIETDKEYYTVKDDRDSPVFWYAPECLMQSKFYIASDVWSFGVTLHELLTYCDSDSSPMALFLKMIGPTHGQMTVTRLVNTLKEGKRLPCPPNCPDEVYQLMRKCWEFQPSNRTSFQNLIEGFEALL
row,SMILES,IC50 [nM]
1,"O=C(c1cccs1)N1CCC[C@@H]2[C@H]1CCN2c1ncnc2[nH]ccc12 [Example 29-28, 4-[(3aR,7aR)-4-(thiophen-2-ylcarbonyl)octahydro-1H-pyrrolo[3,2-b]pyridin-1-yl]-7H-pyrrolo[2,3-d]pyrimidine]",1 to 10
2,"N#Cc1ccc(C(=O)N2CCC[C@@H]3[C@H]2CCN3c2ncnc3[nH]ccc23)cc1 [Example 29-29, 4-{[(3aR,7aR)-1-(7H-pyrrolo[2,3-d]pyrimidin-4-yl)octahydro-4H-pyrrolo[3,2-b]pyridin-4-yl]carbonyl}benzonitrile]",10 to 100
3,"N#Cc1cccc(C(=O)N2CCC[C@@H]3[C@H]2CCN3c2ncnc3[nH]ccc23)c1 [Example 29-31, 3-{[(3aR,7aR)-1-(7H-pyrrolo[2,3-d]pyrimidin-4-yl)octahydro-4H-pyrrolo[3,2-b]pyridin-4-yl]carbonyl}benzonitrile]",10 to 100
4,"O=C(c1ccsc1)N1CCC[C@@H]2[C@H]1CCN2c1ncnc2[nH]ccc12 [Example 29-32, 4-[(3aR,7aR)-4-(thiophen-3-ylcarbonyl)octahydro-1H-pyrrolo[3,2-b]pyridin-1-yl]-7H-pyrrolo[2,3-d]pyrimidine]",10 to 100
5,"N#Cc1ccccc1C(=O)N1CCC[C@@H]2[C@H]1CCN2c1ncnc2[nH]ccc12 [Example 29-33, 2-{[(3aR,7aR)-1-(7H-pyrrolo[2,3-d]pyrimidin-4-yl)octahydro-4H-pyrrolo[3,2-b]pyridin-4-yl]carbonyl}benzonitrile]",10 to 100
6,"O=C(c1ccccc1)N1CCC[C@@H]2[C@H]1CCN2c1ncnc2[nH]ccc12 [Example 29-34, 4-[(3aR,7aR)-4-(phenylcarbonyl)octahydro-1H-pyrrolo[3,2-b]pryidin-1-yl]-7H-pyrrolo[2,3-d]pyrimidine]",10 to 100
7,"O=C(c1cccc2ccncc12)N1CCC[C@@H]2[C@H]1CCN2c1ncnc2[nH]ccc12 [Example 29-39, 8-{[(3aR,7aR)-1-(7H-pyrrolo[2,3-d]pyrimidin-4-yl)octahydro-4H-pyrrolo[3,2-b]pyridin-4-yl]carbonyl}isoquinoline]",10 to 100
8,"O=C(c1cncc2ccccc12)N1CCC[C@@H]2[C@H]1CCN2c1ncnc2[nH]ccc12 [Example 29-40, 4-{[(3aR,7aR)-1-(7H-pyrrolo[2,3-d]pyrimidin-4-yl)octahydro-4H-pyrrolo[3,2-b]pyridin-4-yl]carbonyl}isoquinoline]",10 to 100
9,"O=C(c1cnc2ccccc2c1)N1CCC[C@@H]2[C@H]1CCN2c1ncnc2[nH]ccc12 [Example 29-44, 3-{[(3aR,7aR)-1-(7H-pyrrolo[2,3-d]pyrimidin-4-yl)octahydro-4H-pyrrolo[3,2-b]pyridin-4-yl]carbonyl}quinoline]",10 to 100
10,"O=C(C(O)c1ccccc1)N1CCC[C@@H]2[C@H]1CCN2c1ncnc2[nH]ccc12 (stereo partly drawn) [Example 29-46, 2-oxo-1-phenyl-2-[(3aR,7aR)-1-(7H-pyrrolo[2,3-d]pyrimidin-4-yl)octahydro-4H-pyrrolo[3,2-b]pyridin-4-yl]ethanol]",10 to 100
11,"O=C(c1nccc2ccccc12)N1CCC[C@@H]2[C@H]1CCN2c1ncnc2[nH]ccc12 [Example 29-47, 1-{[(3aR,7aR)-1-(7H-pyrrolo[2,3-d]pyrimidin-4-yl)octahydro-4H-pyrrolo[3,2-b]pyridin-4-yl]carbonyl}isoquinoline]",10 to 100
12,"O=C(c1cc2ccsc2[nH]1)N1CCC[C@@H]2[C@H]1CCN2c1ncnc2[nH]ccc12 [Example 29-48, 4-[(3aR,7aR)-4-(6H-thieno[2,3-b]pyrrol-5-ylcarbonyl)octahydro-1H-pyrrolo[3,2-b]pryidin-1-yl]7H-pyrrolo[2,3-d]pyrimidine]",100 to 1000
13,"O=C(c1cccc2cccnc12)N1CCC[C@@H]2[C@H]1CCN2c1ncnc2[nH]ccc12 [Example 29-51, 8-{[(3aR,7aR)-1-(7H-pyrrolo[2,3-d]pyrimidin-4-yl)octahydro-4H-pyrrolo[3,2-b]pyridin-4-yl]carbonyl}quinoline]",100 to 1000
14,"O=C(c1cc2ccccn2c1)N1CCC[C@@H]2[C@H]1CCN2c1ncnc2[nH]ccc12 [Example 29-52, 4-[(3aR,7aR)-4-(indolizin-2-ylcarbonyl)octahydro-1H-pyrrolo[3,2-b]pyridin-1-yl]-7H-pyrrolo[2,3-d]pyrimidine]",100 to 1000
15,"O=C(Cn1cnc2ccccc21)N1CCC[C@@H]2[C@H]1CCN2c1ncnc2[nH]ccc12 [Example 29-53, 4-[(3aR,7aR)-4-(1H-benzimidazol-1-ylacetyl)octahydro-1H-pyrrolo[3,2-b]pyridin-1-yl]-7H-pyrrolo[2,3-d]pyrimidine]",100 to 1000
16,"O=C(Cn1cc2ccccc2n1)N1CCC[C@@H]2[C@H]1CCN2c1ncnc2[nH]ccc12 [Example 29-54, 4-[(3aR,7aR)-4-(2H-indazol-2-ylacetyl)octahydro-1H-pyrrolo[3,2-b]pyridin-1-yl]-7H-pyrrolo[2,3-d]pyrimidine]",100 to 1000
17,"Cn1ncc2cc(CC(=O)N3CCC[C@@H]4[C@H]3CCN4c3ncnc4[nH]ccc34)ccc21 [Example 29-59, 4-{(3aR,7aR)-4-[(1-methyl-1H-indazol-5-yl)acetyl]octahydro-1H-pyrrolo[3,2-b]pyridin-1-yl}-7H-pyrrolo[2,3-d]pyrimidine]",100 to 1000
18,"O=C(c1ccnc2ccccc12)N1CCC[C@@H]2[C@H]1CCN2c1ncnc2[nH]ccc12 [Example 29-61, 4-{[(3aR,7aR)-1-(7H-pyrrolo[2,3-d]pyrimidin-4-yl)octahydro-4H-pyrrolo[3,2-b]pyridin-4-yl]carbonyl}quinoline]",10 to 100

# Other lines, results leading:
row,IC50 [nM],SMILES
1,10 to 100,"CCC[C@H]1C[C@H]1C(=O)N1CCC[C@@H]2[C@H]1CCN2c1ncnc2[nH]ccc12 [Example 29-30, 4-[(3aR,7aR)-4-{[(1R,2S)-2-propylcyclopropyl]carbonyl}octahydro-1H-pyrrolo[3,2-b]pyridin-1-yl]-7H-pyrrolo[2,3-d]pyrimidine]"
2,10 to 100,"CN(C)C(=O)N1CCC(C(=O)N2CCC[C@@H]3[C@H]2CCN3c2ncnc3[nH]ccc23)CC1 [Example 29-35, N,N-dimethyl-4-{[(3aR,7aR)-1-(7H-pyrrolo[2,3-d]pyrimidin-4-yl)octahydro-4H-pyrrolo[3,2-b]pyridin-4-yl]carbonyl}piperidine-1-carboxamide]"
3,10 to 100,"O=C(CN1CCc2ccccc2C1)N1CCC[C@@H]2[C@H]1CCN2c1ncnc2[nH]ccc12 [Example 29-36, 2-{2-oxo-2-[(3aR,7aR)-1-(7H-pyrrolo[2,3-d]pyrimidin-4-yl)octahydro-4H-pyrrolo[3,2-b]pyridin-4-yl]ethyl}-1,2,3,4-tetrahydroisoquinoline]"
4,10 to 100,"O=C(c1cccc2cnccc12)N1CCC[C@@H]2[C@H]1CCN2c1ncnc2[nH]ccc12 [Example 29-37, 5-{[(3aR,7aR)-1-(7H-pyrrolo[2,3-d]pyrimidin-4-yl)octahydro-4H-pyrrolo[3,2-b]pyridin-4-yl]carbonyl}isoquinoline]"
5,10 to 100,"O=C(C1COc2ccccc2O1)N1CCC[C@@H]2[C@H]1CCN2c1ncnc2[nH]ccc12 (stereo partly drawn) [Example 29-38, 4-[(3aR,7aR)-4-(2,3-dihydro-1,4-benzodioxin-2-ylcarbonyl)octahydro-1H-pyrrolo[3,2-b]pyridin-1-yl]-7H-pyrrolo[2,3-d]pyrimidine]"
6,10 to 100,"O=C(c1ncoc1C1CC1)N1CCC[C@@H]2[C@H]1CCN2c1ncnc2[nH]ccc12 [Example 29-41, 4-{(3aR,7aR)-4-[(5-cyclopropyl-1,3-oxazol-4-yl)carbonyl]octahydro-1H-pyrrolo[3,2-b]pyridin-1-yl}-7H-pyrrolo[2,3-d]pyrimidine]"
7,10 to 100,"CC(Cc1ccccc1)C(=O)N1CCC[C@@H]2[C@H]1CCN2c1ncnc2[nH]ccc12 (stereo partly drawn) [Example 29-42, 4-[(3aR,7aR)-4-(2-methyl-3-phenylpropanoyl)octahydro-1H-pyrrolo[3,2-b]pyridin-1-yl]-7H-pyrrolo[2,3-d]pyrimidine]"
8,10 to 100,"O=C(c1c[nH]c2ccncc12)N1CCC[C@@H]2[C@H]1CCN2c1ncnc2[nH]ccc12 [Example 29-45, 4-[(3aR,7aR)-4-(1H-pyrrolo[3,2-c]pyridin-3-ylcarbonyl)octahydro-1H-pyrrolo[3,2-b]pyridin-1-yl]-7H-pyrrolo[2,3-d]pyrimidine]"
9,100 to 1000,"O=C(c1cn2cccnc2n1)N1CCC[C@@H]2[C@H]1CCN2c1ncnc2[nH]ccc12 [Example 29-49, 4-[(3aR,7aR)-4-(imidazo[1,2-a]pyrimidin-2-ylcarbonyl)octahydro-1H-pyrrolo[3,2-b]pyridin-1-yl]-7H-pyrrolo[2,3-d]pyrimidine]"
10,100 to 1000,"Cn1ccc2cc(C(=O)N3CCC[C@@H]4[C@H]3CCN4c3ncnc4[nH]ccc34)cnc21 [Example 29-50, 4-{(3aR,7aR)-4-[(1-methyl-1H-pyrrolo[2,3-b]pyridin-5-yl)carbonyl]octahydro-1H-pyrrolo[3,2-b]pyridin-1-yl}-7H-pyrrolo[2,3-d]pyrimidine]"
11,100 to 1000,"CN1CCCC(CCC(=O)N2CCC[C@@H]3[C@H]2CCN3c2ncnc3[nH]ccc23)C1 (stereo partly drawn) [Example 29-55, 4-{(3aR,7aR)-4-[3-(1-methylpiperidin-3-yl)propanoyl]octahydro-1H-pyrrolo[3,2-b]pyridin-1-yl}-7H-pyrrolo[2,3-d]pyrimidine]"
12,100 to 1000,"O=C(c1cc(-c2cccc(F)c2)no1)N1CCC[C@@H]2[C@H]1CCN2c1ncnc2[nH]ccc12 [Example 29-57, 4-[(3aR,7aR)-4-{[3-(3-fluorophenyl)isoxazol-5-yl]carbonyl}octahydro-1H-pyrrolo[3,2b]pryidin-1-yl]-7H-pyrrolo[2,3-d]pyrimidine]"
13,100 to 1000,"O=C(c1cn2ccc(Cl)cc2n1)N1CCC[C@@H]2[C@H]1CCN2c1ncnc2[nH]ccc12 [Example 29-60, 4-{(3aR,7aR)-4-[(7-chloroimidazo[1,2-a]pyridin-2-yl)carbonyl]octahydro-1H-pyrrolo[3,2-b]pyridin-1-yl}-7H-pyrrolo[2,3-d]pyrimidine]"

# Same assay, conditions: recombinant GST-tagged catalytic domain, 31.8 μM ATP, read-out: Representative IC50 values
row,IC50 [nM],SMILES
1,5,"O=C(c1cccs1)N1CCC[C@@H]2[C@H]1CCN2c1ncnc2[nH]ccc12 [Example 29-28, 4-[(3aR,7aR)-4-(thiophen-2-ylcarbonyl)octahydro-1H-pyrrolo[3,2-b]pyridin-1-yl]-7H-pyrrolo[2,3-d]pyrimidine]"
2,30,"O=C(CN1CCc2ccccc2C1)N1CCC[C@@H]2[C@H]1CCN2c1ncnc2[nH]ccc12 [Example 29-36, 2-{2-oxo-2-[(3aR,7aR)-1-(7H-pyrrolo[2,3-d]pyrimidin-4-yl)octahydro-4H-pyrrolo[3,2-b]pyridin-4-yl]ethyl}-1,2,3,4-tetrahydroisoquinoline]"
3,132,"O=C(c1cn2cccnc2n1)N1CCC[C@@H]2[C@H]1CCN2c1ncnc2[nH]ccc12 [Example 29-49, 4-[(3aR,7aR)-4-(imidazo[1,2-a]pyrimidin-2-ylcarbonyl)octahydro-1H-pyrrolo[3,2-b]pyridin-1-yl]-7H-pyrrolo[2,3-d]pyrimidine]"

# From patent US8937077B2, “Bicyclic diamines as janus kinase inhibitors” (Merck Sharp & Dohme Corp., priority 2010, dated 2015)
